Earlier results as cited in patent publication US20100285114A1, “PHARMACEUTICAL COMPOSITIONS OF RHEIN OR DIACEREIN” (priority 2007, published 2010).
Counter-ions that a name gives are not always drawn.

How the values were obtained:
[1] = in vivo

## CC(=O)Oc1cccc2c1C(=O)c1c(OC(C)=O)cc(C(=O)O)cc1C2=O [diacerein, 4,5-bis (acetyloxy) 9,10-dihydro-4,5-dihydroxy-9,10-dioxo-2-anthracenecarboxylic acid]
[1]
  soft stool effect expected due to inherent pharmacokinetic property (enterohepatic circulation): 30-40%
In water, alcohols, acetone, dichloromethane and chloroform
  solubility: practically insoluble

## CC(=O)Oc1cccc2c1C(=O)c1c(OC(C)=O)cc(C(=O)O)cc1C2=O [potassium salt of diacerein]
Disclosed in EP 243,968
  solubility in water: water-soluble
